Measurements as given in US8563036B2, “Pharmaceutical compositions comprising Brivaracetam” (UCB Pharma, S.A., priority 2009, dated 2013).
In brackets after ≈: the same amount, converted by molar mass.

Columns and labels:
[1] = tested on: mice; experiment: Chemically induced seizures in mice (pentylenetetrazol); assay type: in vivo; conditions: i.p. 30 min before seizure induction; higher ED50 values than audiogenic model
Procedure: The dose was selected based on dose-effect curves in saline-treated animals as the convulsive dose inducing clonic convulsions of all four extremities in 97% of the animals. Immediately after administration of the chemoconvulsant, the mice were placed individually in small plastic cages (25 13 8 cm) and observed for the presence of clonic convulsions in all four extremities, for 60 min. The occurrence of tonic convulsions (hindlimb extension) and mortality was also recorded during this interval.

[2] = tested on: rat hippocampal slices; experiment: Epileptiform responses in hippocampal slices (field potentials in CA3 area); assay type: cell-based, Sprague-Dawley rats; parameters: effect on rate of spontaneous field bursting: dose or concentration left out as unconfirmed; conditions: for effect on rate of spontaneous field bursting: HKLCF; for effect on epileptiform responses (evoked PS1 amplitude, repetitive PSs): HKLCF perfusion (K+ 7.5 mM; Ca2+ 0.5 mM), fimbrial stimulation
Procedure: The effect of brivaracetam on epileptiform responses induced by high-K+/low-Ca2+ concentrations or by bicuculline was examined in transverse hippocampal slices prepared from Sprague-Dawley rats according to previously reported standard procedures. The epileptiform responses were induced by passing from a normal perfusion of artificial cerebrospinal fluid (ACSF) (K+3 mM; Ca2+2.4 mM) to either high-K+/low-Ca2+ fluid (HKLCF) (K+7.5 mM; Ca2+0.5 mM) or to […] bicuculline methiodide (BMI)-containing ACSF.
Extracellular field potentials (FPs) were recorded in the CA3 area of the slices with 2 M NaCl-filled glass microelectrodes. The evoked FPs were recorded at 10-min intervals in response to fimbrial stimulation with constant current rectangular pulses that elicit a single population spike (PS) of 50-75% of the maximal amplitude when the slice is in ACSF. In the HKLCF model, 2 min of spontaneous activity were also recorded, in the middle of each 10-min interval between the recordings of evoked responses.
Either brivaracetam or levetiracetam was added to the bathing fluid of the slices 20 min before shifting from ACSF to either HKLCF or […] BMI-containing ACSF, and was kept in the perfusion fluid throughout the experiment.

[3] = tested on: Genetically sound-sensitive male mice; experiment: Audiogenic seizures in mice; assay type: in vivo; conditions: audiogenic seizure-susceptible mice, i.p.
Text: Audiogenic seizures in mice: Genetically sound-sensitive male mice (16-28 g; n=10 per group), responding with wild running, clonic and tonic convulsions to an acoustic stimulation, were used. Audiogenic seizures were induced by an acoustic stimulus (90 dB, 10-20 kHz) applied for 30 s.

[4] = tested on: GAERS rats; experiment: Spontaneous SWDs in GAERS rats; assay type: in vivo
[5] = BCS classification
[6] = Water solubility of the active ingredient
[7] = tested on: fully amygdala-kindled rats; experiment: Fully amygdala-kindled rats; assay type: in vivo; conditions: for dose significantly reducing after-discharge duration: highest dose tested
[8] = tested on: mice; experiment: Corneal kindling of mice; assay type: in vivo
[9] = tested on: mice; experiment: Maximal electroshock in mice; assay type: in vivo; conditions: i.p. 30 min before seizure induction; higher ED50 values than audiogenic model
[10] = tested on: rat hippocampal slices; conditions: background statement; cited from earlier work

Row | SMILES | protection against clonic convulsions induced by pentylenetetrazol [1] | effect on rate of spontaneous field bursting [2] | effect on epileptiform responses (evoked PS1 amplitude, repetitive PSs) [2] | protection against clonic convulsions [3] | dose from which spontaneous SWDs were significantly suppressed [4] [mg/kg] | dose giving complete inhibition of spontaneous SWDs ([4]; highest dose tested) [mg/kg] | BCS class [5] | solubility [6] [mg/mL] | dose from which significant suppression in motor-seizure severity was induced [7] [mg/kg] | dose significantly reducing after-discharge duration [7] [mg/kg] | incidence of generalized motor seizures after termination of treatment ([8]; continued corneal stimulations, group previously treated with the highest dose) | incidence of generalized motor seizures ([8]; pretreatment during corneal kindling) | protection against tonic hindlimb extension induced by maximal electroshock [9] | effect on epileptiform responses induced by high-K+/low-Ca2+ and by bicuculline [10]
1 | CCC[C@@H]1CC(=O)N([C@@H](CC)C(N)=O)C1 [Brivaracetam, (2S)-2-[(4R)-2-oxo-4-propyl-pyrrolidin-1-yl]butanamide] | protected against clonic convulsions | reduced the rate of this spontaneous bursting | reduced these epileptiform responses | protected against the expression of clonic convulsions | 2.1 | 67.9 | BCS I | ~700 (≈ 3300 mM) | 21.2 | 212.3 | persistent reduction in the incidence of generalized motor seizures | significant reduction in the incidence of generalized motor seizures | protected | 
2 | CC[C@@H](C(N)=O)N1CCCC1=O [Levetiracetam] |  | not | reduced these epileptiform responses | protected against the expression of clonic convulsions |  |  |  |  | 170 | > 1700 |  |  |  | reduces epileptiform responses
